In patent publication US12479845B2, “Imidazopyridine derivative compounds and use of same” (HANMI PHARM. CO., LTD., priority 2019, dated 2025):

Assays:
LSD1 = LSD1 (Homo sapiens (Human), UniProt O60341); experiment: Biochemical analysis of LSD1 histone demethylase inhibition (BPS Bioscience LSD1 fluorescence analysis kit, HRP/Amplex Red); conditions: demethylation of Lys4 of histone H3
Method: The biochemical inhibition activity of the synthesized compounds on LSD1 was measured. The activity measurement was performed using LSD1 fluorescence analysis kit (available from BPS Bioscience Co., Ltd., Catalog No: 50106). This analysis kit is designed to measure activity of LSD1 enzyme. H2O2 generated upon demethylation of Lys4 moiety of histone H3 by LSD1 is reacted with HRP/Amplex Red reagent to form fluorescent Resorufin, which is measured by this kit, thereby confirming demethylation.
The results are expressed as an IC50 value. As for a control, GSK2879552 (available from GlaxoSmithKline USA) was used.

NCI-H1417 cells = experiment: Cell growth suppression test (CellTiter-Glo Luminescent Cell Viability Assay, 10 days treatment); format: cell-based; conditions: treated for 10 days
Method: Cell growth suppression effects of the synthesized compounds on NCI-H1417 cells were identified. The cells were treated with the synthesized compounds for 10 days. Then, in order to test the cell growth suppression, CellTiter-Glo Luminescent Cell Viability Assay (available from Promega, USA) was used. This test is to measure emission signals proportional to the number of ATPs based on a fixed amount of ATPs, which represents the presence of metabolically active cells, thereby determining the number of viable cells. The results are expressed as a Gl50 value. As for a control, GSK2879552 (available from GlaxoSmithKline USA) was used.

IC50 (LSD1) [nM] | GI50 (NCI-H1417 cells) [nM] | GI50 (NCI-H1417 cells; Homo sapiens, 240 h) [nM] | Compound
24 | – | – | CN[C@@H]1CCCN(c2ccnc3c2nc(-c2ccc(C#N)c(F)c2)n3-c2ccc(N3CCCC3)cc2)C1 [Example 12, (R)-2-fluoro-4-(7-(3-(methylamino)piperidine-1-yl)-3-(4-(pyrrolidine-1-yl)phenyl)-3H-imidazo[4,5-b]pyridine-2-yl)benzonitrile]
23 | – | 62 | N#Cc1ccc(-c2nc3c(N4CCC[C@@H](N)C4)ccnc3n2-c2ccc(N3CCCC3)cc2)cc1F [Example 13, (R)-4-(7-(3-aminopiperidine-1-yl)-3-(4-(pyrrolidine-1-yl)phenyl)-3H-imidazo[4,5-b]pyridine-2-yl)-2-fluorobenzonitrile]
26 | – | – | CN(C)c1ccc(-n2c(-c3ccc(C#N)c(F)c3)nc3c(N4CCC[C@@H](N)C4)ccnc32)cc1 [Example 14, (R)-4-(7-(3-aminopiperidine-1-yl)-3-(4-(dimethylamino)phenyl)-3H-imidazo[4,5-b]pyridine-2-yl)-2-fluorobenzonitrile]
38 | – | 46 | N#Cc1ccc(-c2nc3c(N4CCC[C@@H](N)C4)ccnc3n2-c2c(F)cc(C3CC3)cc2F)cc1F [Example 18, (R)-4-(7-(3-aminopiperidine-1-yl)-3-(4-cyclopropyl-2,6-difluorophenyl)-3H-imidazo[4,5-b]pyridine-2-yl)-2-fluorobenzonitrile]
29 | – | 18 | N#Cc1ccc(-c2nc3c(N4CCC[C@@H](N)C4)ccnc3n2-c2c(F)cc(N3CCCC3)cc2F)cc1F [Example 19, (R)-4-(7-(3-aminopiperidine-1-yl)-3-(2,6-difluoro-4-(pyrrolidine-1-yl)phenyl)-3H-imidazo[4,5-b]pyridine-2-yl)-2-fluorobenzonitrile]
17 | – | 4.8 | COC1CCN(c2ccc(-n3c(-c4ccc(C#N)c(F)c4)nc4c(N5CCC[C@@H](N)C5)ccnc43)c(F)c2)C1 (stereo partly drawn) [Example 23, 4-(7-((R)-3-aminopiperidine-1-yl)-3-(2-fluoro-4-(3-methoxypyrrolidine-1-yl)phenyl)-3H-imidazo[4,5-b]pyridine-2-yl)-2-fluorobenzonitrile]
19 | – | 7.6 | CO[C@@H]1CCN(c2ccc(-n3c(-c4ccc(C#N)c(F)c4)nc4c(N5CCC[C@@H](N)C5)ccnc43)c(F)c2)C1 [Example 24, 4-(7-((R)-3-aminopiperidine-1-yl)-3-(2-fluoro-4-((R)-3-methoxypyrrolidine-1-yl)phenyl)-3H-imidazo[4,5-b]pyridine-2-yl)-2-fluorobenzonitrile]
38 | – | 4.4 | CO[C@H]1CCN(c2ccc(-n3c(-c4ccc(C#N)c(F)c4)nc4c(N5CCC[C@@H](N)C5)ccnc43)c(F)c2)C1 [Example 25, 4-(7-((R)-3-aminopiperidine-1-yl)-3-(2-fluoro-4-((S)-3-methoxypyrrolidine-1-yl)phenyl)-3H-imidazo[4,5-b]pyridine-2-yl)-2-fluorobenzonitrile]
– | – | 39 | CO[C@H]1CCN(c2ccc(-n3c(-c4ccc(C#N)c(F)c4)nc4c(N5CCC6(CCNC6)C5)ccnc43)c(F)c2)C1 (stereo partly drawn) [Example 65, 2-fluoro-4-(3-(2-fluoro-4-((S)-3-methoxypyrrolidine-1-yl)phenyl)-7-(2,7-diazaspiro[4.4]nonane-2-yl)-3H-imidazo[4,5-b]pyridine-2-yl)benzonitrile]
– | – | 23 | CO[C@H]1CCN(c2ccc(-n3c(-c4ccc(C#N)c(F)c4)nc4c(N5CCC6(CC5)CNC6)ccnc43)c(F)c2)C1 [Example 66, (S)-2-fluoro-4-(3-(2-fluoro-4-(3-methoxypyrrolidine-1-yl)phenyl)-7-(2,7-diazaspiro[3.5]nonane-7-yl)-3H-imidazo[4,5-b]pyridine-2-yl)benzonitrile]
– | – | > 1000 | CO[C@H]1CCN(c2ccc(-n3c(-c4ccc(C#N)c(F)c4)nc4c(N5CC6COCC6C5)ccnc43)c(F)c2)C1 (stereo partly drawn) [Example 68, 2-fluoro-4-(3-(2-fluoro-4-((S)-3-methoxypyrrolidine-1-yl)phenyl)-7-(tetrahydro-1H-furo[3,4-c]pyrrole-5(3H)-yl)-3H-imidazo[4,5-b]pyridine-2-yl)benzonitrile]
– | – | > 1000 | CO[C@H]1CCN(c2ccc(-n3c(-c4ccc(C#N)c(F)c4)nc4c(N5CC6(CNC6)C5)ccnc43)c(F)c2)C1 [Example 69, (S)-2-fluoro-4-(3-(2-fluoro-4-(3-methoxypyrrolidine-1-yl)phenyl)-7-(2,6-diazaspiro[3.3]heptane-2-yl)-3H-imidazo[4,5-b]pyridine-2-yl) benzonitrile]
– | – | 34 | CO[C@H]1CCN(c2ccc(-n3c(-c4ccc(C#N)c(F)c4)nc4c(N5CCC6(CCNCC6)CC5)ccnc43)c(F)c2)C1 [Example 70, (S)-2-fluoro-4-(3-(2-fluoro-4-(3-methoxypyrrolidine-1-yl)phenyl)-7-(3,9-diazaspiro[5.5]undecan-3-yl)-3H-imidazo[4,5-b]pyridine-2-yl) benzonitrile]
– | – | 44 | CO[C@H]1CCN(c2ccc(-n3c(-c4ccc(C#N)c(F)c4)nc4c(N5CC6CNCC(C6)C5)ccnc43)c(F)c2)C1 [Example 71, 4-(7-(3,7-diazabicyclo[3.3.1]nonane-3-yl)-3-(2-fluoro-4-((S)-3-methoxypyrrolidine-1-yl)phenyl)-3H-imidazo[4,5-b]pyridine-2-yl)-2-fluorobenzonitrile]
28 | – | – | N#Cc1ccc(-c2nc3c(N4CCCC[C@@H](N)C4)ccnc3n2-c2ccc(N3CC4COCC4C3)cc2F)cc1F (stereo partly drawn) [Example 73, 4-(7-((R)-3-aminoazepane-1-yl)-3-(2-fluoro-4-(tetrahydro-1H-furo[3,4-c]pyrrole-5(3H)-yl)phenyl)-3H-imidazo[4,5-b]pyridine-2-yl)-2-fluorobenzonitrile]

Second part, the compound before the results:

Compound | IC50 (LSD1) [nM] | GI50 (NCI-H1417 cells) [nM] | GI50 (NCI-H1417 cells; Homo sapiens, 240 h) [nM]
4-(7-((R)-3-aminopiperidine-1-yl)-3-(2-fluoro-4-((S)-3-hydroxypyrrolidine-1-yl)phenyl)-3H-imidazo[4,5-b]pyridine-2-yl)-2-fluorobenzonitrile [Example 35] | 45 | 17 | –
Cc1ccc(-n2c(-c3ccc(C#N)cc3)nc3c(N4CCC[C@@H](N)C4)ccnc32)cc1 [Example 1, (R)-4-(7-(3-aminopiperidine-1-yl)-3-(p-tolyl)-3H-imidazo[4,5-b]pyridine-2-yl)benzonitrile] | 56 | – | 90
N#Cc1ccc(-c2nc3c(N4CC[C@@H](N)C4)ccnc3n2-c2ccc(C3CC3)cc2)cc1 [Example 2, (R)-4-(7-(3-aminopyrrolidine-1-yl)-3-(4-cyclopropylphenyl)-3H-imidazo[4,5-b]pyridine-2-yl)benzonitrile] | 162 | – | 40
N#Cc1ccc(-c2nc3c(N4CCC(N)CC4)ccnc3n2-c2ccc(C3CC3)cc2)cc1 [Example 3, 4-(7-(4-aminopiperidine-1-yl)-3-(4-cyclopropylphenyl)-3H-imidazo[4,5-b]pyridine-2-yl)benzonitrile] | 53 | – | 230
CN[C@@H]1CCCN(c2ccnc3c2nc(-c2ccc(C#N)cc2)n3-c2ccc(C3CC3)cc2)C1 [Example 4, (R)-4-(3-(4-cyclopropylphenyl)-7-(3-(methylamino)piperidine-1-yl)-3H-imidazo[4,5-b]pyridine-2-yl)benzonitrile] | 44 | – | 103
N#Cc1ccc(-c2nc3c(N4CCC[C@@H](N)C4)ccnc3n2-c2ccc(C3CC3)cc2)cc1 [Example 5, (R)-4-(7-(3-aminopiperidine-1-yl)-3-(4-cyclopropylphenyl)-3H-imidazo[4,5-b]pyridine-2-yl)benzonitrile] | 101 | – | 159
Cc1ccc(-n2c(-c3ccc(C#N)c(F)c3)nc3c(N4CCC[C@@H](N)C4)ccnc32)c(F)c1 [Example 7, (R)-4-(7-(3-aminopiperidine-1-yl)-3-(2-fluoro-4-methylphenyl)-3H-imidazo[4,5-b]pyridine-2-yl)-2-fluorobenzonitrile] | 26 | – | 99
N#Cc1ccc(-c2nc3c(N4CCCC[C@@H](N)C4)ccnc3n2-c2ccc(C3CC3)cc2)cc1F [Example 8, (R)-4-(7-(3-aminoazepane-1-yl)-3-(4-cyclopropylphenyl)-3H-imidazo[4,5-b]pyridine-2-yl)-2-fluorobenzonitrile] | 23 | – | 56
N#Cc1ccc(-c2nc3c(N4CCC[C@@H](N)C4)ccnc3n2-c2ccc(N3CCCCC3)cc2)cc1F [Example 9, (R)-4-(7-(3-aminopiperidine-1-yl)-3-(4-(piperidine-1-yl)phenyl)-3H-imidazo[4,5-b]pyridine-2-yl)-2-fluorobenzonitrile] | 38 | – | 100
N#Cc1ccc(-c2nc3c(N4CCC[C@@H](N)C4)ccnc3n2-c2ccc(N3CCCCC3)cc2F)cc1F [Example 10, (R)-4-(7-(3-aminopiperidine-1-yl)-3-(2-fluoro-4-(piperidine-1-yl)phenyl)-3H-imidazo[4,5-b]pyridine-2-yl)-2-fluorobenzonitrile] | 40 | – | 30
N#Cc1ccc(-c2nc3c(N4CCC[C@@H](N)C4)ccnc3n2-c2ccc(C3CC3)cc2F)cc1F [Example 11, (R)-4-(7-(3-aminopiperidine-1-yl)-3-(4-cyclopropyl-2-fluorophenyl)-3H-imidazo[4,5-b]pyridine-2-yl)-2-fluorobenzonitrile] | 21 | – | 24
